Experimental data: article PMC11510591, “In Vitro Evaluation of Pharmacokinetic Properties of Selected Dual COX-2 and 5-LOX Inhibitors” (Pharmaceuticals, 2024)
Where two headings read alike, the source gives them in different places.

Tests used:
[1] = system: CD-1 mouse liver microsomes; details: pH 7.4; for Peak Area, t0: 0 min; for Peak Area, t: 30 min
Procedure: Microsomal stability (and thus susceptibility to metabolism) was tested using microsomes derived from CD-1 mouse liver. According to the applied protocol, both phases of metabolism were activated by the addition of cofactors NADPH and UDP-GlcUA. […] Stock solutions of all tested compounds (5 mM DMSO solutions) were diluted with 0.1 M potassium phosphate buffer pH 7.4 to obtain 0.1 mM solutions, which were further incubated according to the protocol. In order to activate both the 1st and 2nd phases of metabolism, NADPH and UDP-GlcUA were used as cofactors. Tested compounds were incubated at 37 °C for 30 min, and the incubation was quenched immediately after the addition of cofactors (t0) and after the defined incubation time (t) by mixing 100 µL of corresponding incubation mixtures with 200 µL of cold acetonitrile. All compounds were tested in duplicates, and their concentrations were determined using the HPLC-MS/MS method (Section 3.7.1).
The HPLC-MS/MS analysis was performed on the UHPLC chromatograph ACELLA (Thermo Fisher Scientific Inc., Madison, WI, USA), coupled to a triple quadrupole mass spectrometer TSQ Quantum Access MAX (Thermo Fisher Scientific Inc., Madison, WI, USA) with a heated electrospray ionization (HESI) interface. The column used was Zorbax Extend C18 (150 mm × 4.6 mm, 5 µm; Agilent Technologies), which was thermostated at 25 °C. The mobile phase consisted of acetonitrile and 0.1% formic acid (60:40, v/v), with a flow rate of 500 µL/min. The injection volume was 10 µL.

[2] = PAMPA test (hexadecane membrane), passive gastrointestinal absorption; type: in vitro ADME; details: donor pH 5.5, acceptor pH 7.4, 5 h, room temperature; for Papp at 5 h, 0.05 mM: PAMPA, read-out: Pe (effective passive permeability coefficient)
Procedure: The PAMPA test uses a 96-well plate coated with an impregnated filter material, forming an artificial membrane that separates donor and acceptor compartments. Egg lecithin in dodecane is commonly used to simulate membrane lipids, while hexadecane is effective for mimicking gastrointestinal membranes. […] Therefore, hexadecane dissolved in hexane was chosen in this study.
The phosphate buffer solution was prepared by dissolving 0.5292 g of NaH2PO4 × H2O and 0.0234 g of Na2HPO4 in purified water (200 mL). The phosphate buffer was divided into two portions, and the pH was adjusted to pH 5.5 and pH 7.4 using o-phosphoric acid. The donor solutions were prepared by diluting the stock solutions (5 mM DMSO solutions) with the buffer pH 5.5 to obtain the final concentration of 0.05 mM (the DMSO concentration in the donor solutions was 1%), while the acceptor solution was prepared as a 1% DMSO solution in the buffer pH 7.4. The use of DMSO as a cosolvent in PAMPA is necessary in cases of low-soluble compounds. It is usually used in concentrations up to 5% [25, 55, 56, 57].
The PAMPA test was performed according to the literature procedure using a 96-well microtiter polycarbonate filter plate (Merck Millipore, Carrigtwohill, Ireland) that was impregnated with 15 µL of a hexadecane/hexane (5:95, v/v) solution [52]. Donor solutions (300 µL per well) were transferred into each well of the donor plate. Acceptor solution was transferred into each well (300 µL per well) of the acceptor plate (MSSACCEPTOR, Millipore, Burlington, MA, USA) and covered by the donor plate to create a PAMPA sandwich. The system was incubated at room temperature for 5 h at a vibratory mixer. After incubation, the PAMPA sandwich was dissociated, and concentrations of all tested compounds in each well, as well as in the starting solutions, were determined using the HPLC method (Section 3.3.1).
The concentrations of tested compounds in the starting solutions, as well as in the donor and acceptor sections after incubation, were determined by the HPLC method on the Dionex Ultimate 3000 (Thermo Fisher Scientific, Waltham, MA, USA) equipped with a quaternary pump, autosampler, and DAD detector using a ZORBAX Eclipse XDB-C18 4.6 × 150 mm, 5 µm column (Agilent Technologies, Santa Clara, CA, USA).
R represents the retention, which is defined as the fraction of the tested compound retained in the PAMPA membrane (filters and plate materials), CD(t) is the concentration of a tested compound in a donor compartment after incubation time t, CA(t) is the concentration of a tested compound in an acceptor compartment after incubation time t, while CD(0) represents the concentration of a tested compound in a donor compartment at the beginning of the incubation (starting solution).

[3] = BMC, Brij 35 mobile phase pH 5.5, 36.5 °C, C18 column
Procedure: BMC was performed using polyoxyethylene lauryl ether (Brij 35) as the most frequently used surfactant in this method. All other parameters (pH, temperature, and salinity) were set to achieve physiological conditions. The retention of compounds is mostly influenced by their lipophilicity and their interactions with both the modified stationary phase and the micelles in the mobile phase. Therefore, the elution behavior is determined by the combined effects of micelles, the stationary phase, and water. An important factor for this method is finding the optimal balance between organic solvent and aqueous phase.
BMC was performed on an Agilent 1200 Series (Agilent Technologies, Santa Clara, CA, USA) supplied with a binary pump, manual injector (20 µL), and DAD detector (190–950 nm) using a C18 column (ZORBAX Extend-C18 Analytical 4.6 × 150 mm; 5 µm, Agilent Technologies, Santa Clara, CA, USA). Mobile phase was a combination of aqueous phase (40 mmol/L solution of Brij 35 in 7 mmol/L Na2HPO4) and acetonitrile (70:30, v/v), and the mobile phase pH was adjusted to 5.5 using o-phosphoric acid. […] Retention factors (k) were calculated according to Equation (1). Column dead time (t0) was the retention time of DMSO at 220 nm, while tR was the retention time of a tested compound. k = (tR − t0)/t0(1)

[4] = target: T1, human serum albumin (HSA) (Homo sapiens, UniProt P02768); test: Differential pulse voltammetry (DPV), interaction with HSA; type: binding; details: compound 0.05 mmol/L, PBS pH 7.4, HSA 0.05–10 μmol/L
T1 construct: purchased Sigma-Aldrich
Procedure: The electrochemical oxidation of the tested compounds at a concentration of 0.05 mmol/L in PBS buffer pH 7.4 was investigated by differential pulse voltammetry (DPV). […] For all tested compounds, a preliminary study of the interaction with HSA was performed at a concentration of 0.05 mmol/L and different HSA concentrations (0.05–10 μmol/L) using DPV. […] It has been reported that the shift in the potential of an electroactive ligand is a suitable criterion to determine the mode of the macromolecule–ligand interaction. In this context, a positive shift in potential is an indication of hydrophobic interaction of investigated compounds with HSA [34]. The decrease in peak current could be due to the formation of a non-electroactive supramolecular compound by the drug–protein interaction, which reduces the concentration of free drug.
The voltammetric measurements were carried out with the µAutolab analyzer (EcoChemie, Utrecht, The Netherlands). A three-electrode system with a GCE working electrode, an Ag/AgCl reference electrode, and a Pt-auxiliary electrode was used. Before each experiment, the GCE was manually polished with an aqueous slurry of Al2O3 powder (particle size of 0.05 μm) on a smooth polishing pad, sonicated in deionized water, and then treated in absolute ethanol. Phosphate buffer saline (PBS) pH 7.4 was used as the supporting electrolyte. The experiments were carried out with deaerated PBS buffer. A stock solution of HSA in PBS at a concentration of 0.1 mmol/L was used. […] The interaction between tested compounds and HSA was examined in PBS solution, using solutions of tested compounds in a concentration of 0.05 mmol/L and HSA solution with a concentration in the range of 0.05–10 μmol/L.
The percentage of free compound (Equation (4)) was calculated from the ratio of the current intensity (IINT) for a given compound concentration (0.05 mmol/L) in the presence of albumin to the signal obtained at the same compound concentration only in the presence of the supporting electrolyte (PBS buffer) (IC).

[5] = target: T1, human serum albumin (HSA); type: binding; details: CHIRALPAK HSA column, ammonium acetate buffer pH 7.0/acetonitrile 85:15, 25 °C
Procedure: Recently, interactions of many newly synthesized structurally diverse compounds with HSA were successfully studied using this technique. The degree of binding of the tested compounds to HSA was evaluated based on their retention behavior on the stationary phase modified with HSA. The logarithmic values of retention factors (logk) were used to evaluate indirectly and compare the drug–HSA interaction.
HPAC analysis was performed on an Agilent 1200 Series chromatograph (Agilent Technologies, Santa Clara, CA, USA). […] The mobile phase consisted of ammonium acetate buffer (pH 7.0; 0.01 M) and acetonitrile (85:15, v/v). The flow rate was 0.6 mL/min, the temperature was set to 25 °C, and the detection of tested compounds was carried out at 283 nm. Tested compounds were dissolved in DMSO (at a concentration of 1 mg/mL), further diluted with the mobile phase to a final concentration of 0.05 mg/mL, and analyzed in triplicate. The HPAC conditions were selected not only with the aim of achieving satisfactory retention characteristics of all synthesized compounds but also taking into account recommendations of a column manufacturer. Retention factors were calculated using Equation (1), where t0 (column dead time) was the retention time of DMSO at 220 nm.

T1 sequence (P02768 25-609): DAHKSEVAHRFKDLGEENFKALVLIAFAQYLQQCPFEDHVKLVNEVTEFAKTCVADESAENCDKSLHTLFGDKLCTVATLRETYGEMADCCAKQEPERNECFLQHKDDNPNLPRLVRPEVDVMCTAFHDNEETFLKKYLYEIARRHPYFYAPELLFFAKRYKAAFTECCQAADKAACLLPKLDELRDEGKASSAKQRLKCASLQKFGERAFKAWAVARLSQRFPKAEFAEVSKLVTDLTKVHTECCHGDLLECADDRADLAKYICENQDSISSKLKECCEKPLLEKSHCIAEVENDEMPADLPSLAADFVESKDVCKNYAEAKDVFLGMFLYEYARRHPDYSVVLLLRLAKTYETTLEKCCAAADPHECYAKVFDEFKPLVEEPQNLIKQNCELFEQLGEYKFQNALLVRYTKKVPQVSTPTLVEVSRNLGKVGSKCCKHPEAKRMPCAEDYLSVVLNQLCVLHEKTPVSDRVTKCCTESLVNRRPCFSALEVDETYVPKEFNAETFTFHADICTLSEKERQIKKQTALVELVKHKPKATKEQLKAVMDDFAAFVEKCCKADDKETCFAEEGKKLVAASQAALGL

Row | Peak Area, t0 [1] | Peak Area, t [1] | Papp at 5 h, 0.05 mM [2] | –logPe [2] | –logPe ([2]; listed as diclofenac) | Retention factors (k) [3] | Retention factors (k) ([3]; listed as diclofenac) | % Bound Drug [4] | ΔE, DPV peak potential shift after interaction with HSA [4] | Retention Factors (logk) [5] | Retention Factors (logk) ([5]; listed as flurbiprofen) | –logPe ([2]; listed as flurbiprofen) | –logPe ([2]; listed as indomethacin) | SMILES | –logPe ([2]; listed as ibuprofen)
1 | 126.2 ± 2.8 ×10^3 | 99.7 ± 5.3 ×10^3 | > 400 ×10⁻⁶ cm/s | <3.40 | ≤ 3.46 | 8.25 ± 0.00 | 8.25 | – | – | – | – | – | – | O=C(O)Cc1ccccc1Nc1c(Cl)cccc1Cl [Diclofenac, diclofenac] | –
2 | – | – | > 400 ×10⁻⁶ cm/s | <3.40 | – | 7.14 ± 0.02 | – | Electrochemically inactive | Electrochemically inactive | 11.03 ± 0.02 | 11.03 | ≤ 3.46 | – | CC(C(=O)O)c1ccc(-c2ccccc2)c(F)c1 (stereo not shown) [Flurbiprofen, flurbiprofen] | –
3 | 241.9 ± 2.5 ×10^3 | 206.9 ± 9.0 ×10^3 | 386 ×10⁻⁶ cm/s | 3.41 ± 0.05 | – | 10.20 ± 0.03 | – | – | – | – | – | – | ≤ 3.46 | COc1ccc2c(c1)c(CC(=O)O)c(C)n2C(=O)c1ccc(Cl)cc1 [Indomethacin, indomethacin, reference compound] | –

Row | SMILES | Peak Area, t0 [1] | Peak Area, t [1] | Papp at 5 h, 0.05 mM [2] | –logPe [2] | –logPe ([2]; listed as diclofenac) | Retention factors (k) [3] | Retention factors (k) ([3]; listed as diclofenac) | % Bound Drug [4] | ΔE, DPV peak potential shift after interaction with HSA [4] | Retention Factors (logk) [5] | Retention Factors (logk) ([5]; listed as flurbiprofen) | –logPe ([2]; listed as flurbiprofen) | –logPe ([2]; listed as indomethacin) | –logPe ([2]; listed as ibuprofen)
4 | CC(C)Cc1ccc(C(C)C(=O)O)cc1 (stereo not shown) [Ibuprofen, ibuprofen] | – | – | > 400 ×10⁻⁶ cm/s | <3.40 | – | 13.36 ± 0.00 | – | – | – | – | – | – | – | ≤ 3.46
